Results published in paper PMC7395068, “The evolution of strategies to minimise the risk of human drug-induced liver injury (DILI) in drug discovery and development” (Archives of Toxicology, 2020).
Read-outs that look alike come from different tables or passages of the source.

Experiments:
[1] = Plasma free fraction (fu) and unbound Cmax (Cmax,u); format: in vitro ADME, human; settings: unbound plasma Cmax
Procedure: The prediction of DILI severity was evaluated further using the 3D combined HCI assays using plasma-free fraction. The majority of fu values were obtained from literature, when unavailable in-house prediction was utilised. Unbound plasma Cmax concentrations (Cmax,u) were derived by multiplying total plasma Cmax with the corresponding free fraction (fu) for each compound.

HepG2 = test system: HepG2; set-up: method as in Albrecht 2019; settings: In vitro Assay; ref Albrecht 2019; cited from earlier work
HepG2 cells [2] = settings: Structural based (HCI), HepG2; ref O'Brien et al. 2006; cited from earlier work
HepG2 cells [3] = settings: cited from earlier work
HepG2 cells [4] = settings: cited from earlier work; remark: listed apart in the source
[5] = test system: THLE or HepG2 cells, isolated mitochondria, BSEP; settings: cited from earlier work
PHH [6] = settings: cited from earlier work
hLiMTs [7] = settings: cited from earlier work
[8] = test system: HepG2 C3A spheroid, BSEP, Glu/Gal in HepG2 cells, bioactivation; settings: cited from earlier work
[9] = read-out: Human plasma Cmax; total plasma Cmax.tot, median of 9 literature references; cited from earlier work
[10] = plasma free fraction; cited from earlier work
[11] = cited from earlier work
PHH [12] = settings: In vitro Assay; ref Albrecht 2019; cited from earlier work
[13] = test system: isolated mouse liver mitochondria; settings: In vitro Assay; ref Porceddu 2012; cited from earlier work
hLiMTs [14] = experiment: Combined HCI (HCS) and cellular ATP 3D assay in hLiMTs; settings: for AC50 / minimal effective concentration: Homo sapiens
HepaRG spheroids = experiment: Combined HCI (HCS) and cellular ATP 3D assay in HepaRG spheroids
Procedure: 3D spheroid models consisting of either primary human hepatocytes with non-parenchymal cells (hLiMT’s) or HepaRG cells (HepaRG spheroids) were assessed for size (MS), oxidative stress (OS), MMP, mitochondrial mass (MM), GSH and cellular ATP content following drug exposure. Fluorescent images are acquired using the confocal mode of an ArrayScan™ XTI HCI reader (ThermoScientific) following which cellular ATP was measured using 3D CellTiter-Glo (Promega).

[15] = In vitro Assay, ref Persson 2013
[16] = Modeled in vitro assays (cytotoxicity, mitochondrial dysfunction, BSEP), ref Aleo et al. 2019
[17] = In vitro Assay, ref Proctor 2017
[18] = Microtissue model structural based (HCI), combined HCS and ATP, MEC < 25 × Cmax.tot cut-off

In the case of CC(=O)Oc1ccccc1C(=O)O [acetylsalicylic acid], the “Human plasma Cmax,u” value [1] is listed as 538.224 µM, the “Cytotoxicity HepG2 48 hrs” value (HepG2) is listed as “+VE” and the “DILI in vitro assay prediction, O'Brien (2006)” value (HepG2 cells [2]) is listed as “+VE (lowest HCI endpoint IC50 (or in the absence of dose–response < 100 µM) < 30 × total human plasma exposure levels (Cmax.tot))”. The Cluser analysis (HepG2 cells [3]; [15]) was “-VE”, the “Structural based (HCI)” value (HepG2 cells [3]; [15]) was “-VE” and the “DILI in vitro assay prediction, Persson (2013)” value (HepG2 cells [3]; Structural based (HCI), HepG2, ref Persson et al. 2013) was “-VE”. For the same molecule, the “Structural based (HCI)” value (HepG2 cells [4]; In vitro Assay, ref Tolosa 2012) was “+VE”, the “DILI in vitro assay prediction, Tolosa (2012)” value (HepG2 cells [4]; Structural based (HCI), HepG2, ref Tolosa et al. 2012) was “+VE” and the “Partition Hybrid HRM Score” value ([5]; In vitro Assay, ref Aleo 2019) was “-VE”. For the same molecule, the “Ro2 Hybrid HRM Score” value ([5]; In vitro Assay, ref Aleo 2019) was “-VE”, the “Partition Hybrid HRM Score ≥4, Aleo (2019)” value [5, 16] was “-VE” and the “Partition Hybrid HRM Score ≥8, Aleo (2019)” value [5, 16] was “-VE”. The “Rule of Two hybrid HRM Score ≥3, Aleo (2019)” value [5, 16] was “-VE”, the “Rule of Two hybrid HRM Score ≥8, Aleo (2019)” value [5, 16] was “-VE” and the “PHH/100xCmax, Proctor (2017)” value (PHH [6]; 2D PHH, ATP, IC50 < 100 × Cmax.tot, ref Proctor et al. 2017) was “-VE”. The “PHH/100uM, Proctor (2017)” value (PHH [6]; 2D PHH, ATP, IC50 threshold 100 µM, ref Proctor et al. 2017) was “-VE”, the “PHH ATP <100uM” value (PHH [6]; [17]) was “-VE” and the “hLiMTs ATP <100uM” value (hLiMTs [7]; [17]) was “-VE”. The “hLiMTs/100xCmax, Proctor (2017)” value (hLiMTs [7]; hLiMTs, ATP, IC50 < 100 × Cmax.tot, ref Proctor et al. 2017) was “-VE”, the “hLiMTs/100uM, Proctor (2017)” value (hLiMTs [7]; hLiMTs, ATP, IC50 threshold 100 µM, ref Proctor et al. 2017) was “-VE” and the “Bayesian Machine Learning DILI prediction, Williams (2019)” value ([8]; Bayesian modeling, ref Williams et al. 2019) was “-VE”. For the same molecule, the “Bayesian Machine Learning” value ([8]; In vitro Assay, ref Williams 2019) was “-VE”, the Cmax [9] was 1380 µM and the fu [10] was 0.390. The “Assigned DILI category” value ([11]; Chen et al. 2016 or literature alignment, ref Chen et al. 2016) was 3, the “In vivo DILI” value ([11]; […]) was “-VE” and the “In vivo DILI” value ([11]; ref Albrecht 2019) was “+VE”. The “In vivo DILI” value ([11]; ref Aleo 2019) was “+VE”, the “In vivo DILI” value ([11]; ref Persson 2013) was “+VE” and the “In vivo DILI” value ([11]; ref Porceddu 2012) was “+VE”. The “In vivo DILI” value ([11]; ref Proctor 2017) was “+VE”, the “In vivo DILI” value ([11]; ref Tolosa 2012) was “+VE” and the “In vivo DILI” value ([11]; ref Williams 2019) was “+VE”. The “Cytotoxicity PHH 48 hrs” value (PHH [12]) was “+VE”, the “in vitro data EC2<=1x Cmax” value [13] was “+VE” and the “in vitro data EC20<=2uM” value [13] was “-VE”. For the same molecule, the AC50 (hLiMTs [14]; read-out: ATP endpoint AC50) was 3.25 mM, the minimal effective concentration (hLiMTs [14]; read-out: ATP endpoint MEC) was 2270 µM and the AC50 (hLiMTs [14]; read-out: HCS endpoint AC50) was 4.69 mM. For the same molecule, the minimal effective concentration (hLiMTs [14]; read-out: HCS endpoint MEC) was 1930 µM, the “DILI prediction hLiMTs (HCS-MEC)” value (hLiMTs [14]; [18]) was “+VE (MEC < 25 × Cmax.tot cut-off)” and the “hLiMTs <25x Avg Cmax ATP” value (hLiMTs [14]; hLiMTs, ATP endpoint, cut-off <25x Avg Cmax) was “+ve”. The “hLiMTs <100x Avg Cmaxu ATP” value (hLiMTs [14]; hLiMTs, ATP endpoint, cut-off <100x Avg Cmaxu) was “+ve (<100x Avg Cmaxu)”, the “hLiMTs <25x Avg Cmax HCS” value (hLiMTs [14]; hLiMTs, HCS endpoints, cut-off <25x Avg Cmax) was “+ve” and the “hLiMTs <100x Avg Cmaxu HCS” value (hLiMTs [14]; hLiMTs, HCS endpoints, cut-off <100x Avg Cmaxu) was “+ve (<100x Avg Cmaxu)”. The “hLiMTs <25x Avg Cmax All” value (hLiMTs [14]; hLiMTs, all endpoints (ATP and HCS), cut-off <25x Avg Cmax) was “+ve”, the “hLiMTs Cmax max All” value (hLiMTs [14]; hLiMTs, all endpoints, Cmax max used) was “+ve” and the “hLiMTs Cmax min All” value (hLiMTs [14]; hLiMTs, all endpoints, Cmax min used) was “+ve”. The “hLiMTs <10 uM All” value (hLiMTs [14]; hLiMTs, all endpoints, cut-off <10 uM) was “-ve”, the “hLiMTs <100x Avg Cmaxu All” value (hLiMTs [14]; hLiMTs, all endpoints, cut-off <100x Avg Cmaxu) was “+ve (<100x Avg Cmaxu)” and the “HepaRG <25x Avg Cmax ATP” value (HepaRG spheroids; HepaRG, ATP endpoint, cut-off <25x Avg Cmax) was “+ve”. For the same molecule, the “HepaRG <100x Avg Cmaxu ATP” value (HepaRG spheroids; HepaRG, ATP endpoint, cut-off <100x Avg Cmaxu) was “+ve (<100x Avg Cmaxu)”, the “HepaRG <25x Avg Cmax HCS” value (HepaRG spheroids; HepaRG, HCS endpoints, cut-off <25x Avg Cmax) was “+ve” and the “HepaRG <100x Avg Cmaxu HCS” value (HepaRG spheroids; HepaRG, HCS endpoints, cut-off <100x Avg Cmaxu) was “+ve (<100x Avg Cmaxu)”. The “HepaRG <25x Avg Cmax All” value (HepaRG spheroids; HepaRG, all endpoints (ATP and HCS), cut-off <25x Avg Cmax) was “+ve”, the “HepaRG Cmax max All” value (HepaRG spheroids; HepaRG, all endpoints, Cmax max used) was “+ve” and the “HepaRG Cmax min All” value (HepaRG spheroids; HepaRG, all endpoints, Cmax min used) was “+ve”. The “HepaRG <10 uM All” value (HepaRG spheroids; HepaRG, all endpoints, cut-off <10 uM) was “-ve”, the “HepaRG <100x Avg Cmaxu All” value (HepaRG spheroids; HepaRG, all endpoints, cut-off <100x Avg Cmaxu) was “+ve (<100x Avg Cmaxu)” and the AC50 (HepaRG spheroids; Homo sapiens, HepaRG, read-out: ATP endpoint AC50) was 1.63 mM. The minimal effective concentration (HepaRG spheroids; Homo sapiens, HepaRG, read-out: ATP endpoint MEC) was 659 µM, the minimal effective concentration (HepaRG spheroids; Homo sapiens, HepaRG, read-out: HCS endpoint MEC) was 1340 µM and the “DILI prediction HepaRG spheroids (HCS-MEC)” value (HepaRG spheroids; [18]) was “+VE (MEC < 25 × Cmax.tot cut-off)”.
